As a reminder, the Km is the concentration of substrate that gives half-maximal velocity.

Here are results for 4 molecules from publication PMC10202292, “The exquisite specificity of human protein arginine methyltransferase 7 (PRMT7) toward Arg-X-Arg sites” (PLOS ONE, 2023).

Read-outs that look alike come from different tables or passages of the source. No end group written: not given here.

Data set [1] has as its target T1, GST-HsPRMT7 (Homo sapiens, UniProt Q9NVM4).
T1 construct: full-length human PRMT7 (residues 1–692); 34693; host or cells: E. coli BL21 DE3
T1 sequence (Q9NVM4 1-692): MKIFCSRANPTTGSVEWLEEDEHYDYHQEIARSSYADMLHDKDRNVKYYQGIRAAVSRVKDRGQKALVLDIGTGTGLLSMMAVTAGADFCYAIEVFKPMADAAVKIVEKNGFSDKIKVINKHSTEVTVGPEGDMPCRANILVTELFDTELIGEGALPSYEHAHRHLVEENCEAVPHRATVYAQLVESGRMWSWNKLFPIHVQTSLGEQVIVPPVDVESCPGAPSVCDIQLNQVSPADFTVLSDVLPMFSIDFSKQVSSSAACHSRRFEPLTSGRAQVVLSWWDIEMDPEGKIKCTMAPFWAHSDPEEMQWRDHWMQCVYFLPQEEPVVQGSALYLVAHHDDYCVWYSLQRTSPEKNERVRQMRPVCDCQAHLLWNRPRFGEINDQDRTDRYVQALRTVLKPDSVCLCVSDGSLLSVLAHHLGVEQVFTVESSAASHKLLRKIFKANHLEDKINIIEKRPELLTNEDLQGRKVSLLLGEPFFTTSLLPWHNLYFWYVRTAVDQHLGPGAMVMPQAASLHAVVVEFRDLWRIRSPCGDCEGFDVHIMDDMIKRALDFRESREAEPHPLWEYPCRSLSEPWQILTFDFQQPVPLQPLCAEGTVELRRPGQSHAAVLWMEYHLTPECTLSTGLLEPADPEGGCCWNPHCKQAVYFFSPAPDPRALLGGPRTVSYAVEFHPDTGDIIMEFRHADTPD
The experiment in a line: P81 phosphocellulose filter paper methylation assay with peptide substrates (cpm, end point and time course). It counts as biochemical. The note with it: 10 μM peptide. On the procedure:
(§1) In vitro methylation assays were performed with GST-HsPRMT7, the indicated substrate protein or peptide, and 1.4 μM S-adenosyl-L-[methyl-^3H]methionine ([^3H]-AdoMet; PerkinElmer cat no. NET155V), prepared from diluting a stock of 7.0 μM [^3H]-AdoMet (81.9 Ci/mmol, 1 mCi/mL in 9:1 10 mM H2SO4:EtOH, v/v) in 10 mM HCl. All reactions were performed using distilled water buffered with 50 mM potassium HEPES, pH 9.5 and 1 mM DTT, reaching a final reaction volume of 30 μL. The reactions were initiated by adding [^3H]-AdoMet to a final concentration of 0.14 μM. Control reactions (enzyme-only, substrate-only) contained distilled water instead of substrate or GST-HsPRMT7, respectively. After initiation with [^3H]-AdoMet, all reactions analyzed via P81 phosphocellulose filter paper assay were incubated in a water bath at 25°C unless otherwise indicated for the specified time periods and were terminated with 0.5 μL 100% (w/v) trifluoroacetic acid (TFA). P81 assays performed at t = 0 were individually terminated immediately following initiation. Samples analyzed via SDS-PAGE were incubated at 4°C for 24 hours and were quenched by adding 5x SDS sample loading buffer (250 mM Tris-HCl, pH 6.8; 10% SDS, 30% glycerol, 10% β-mercaptoethanol, 0.2% bromophenol blue), followed by heating at 97°C for 3 min.
(§2) In vitro methylation assays with GST-HsPRMT7, selected methyl-accepting substrates, and [^3H]-AdoMet were set up as described previously and performed in triplicate. Following incubation at 25°C unless otherwise indicated for the time periods specified, all samples were quenched with 0.5 μL 100% TFA and centrifuged at 9,300 g for 10 seconds in an Eppendorf centrifuge (Model 5417C). 1 cm^2 pieces of P81 phosphocellulose filter paper (LabAlley catalog no. 05-717-2A) were spotted with 25 μL from each reaction mixture and set to dry overnight. The following day, all filter paper pieces were washed three times with 50 mM sodium bicarbonate solution, pH 9.0, and dried again in liquid scintillation vials. After 5 mL of Safety Solve fluor (RPI industries) was added to each vial, [^3H] radioactivity in each sample was quantified via liquid scintillation counter (Beckman LS6500) for four total cycles at 5 minutes per sample. All data presented are expressed as averages of the cpm from cycles 2–4.
(§3) Statistical analyses were performed using the “Analyze Data” function on GraphPad Prism v.8.0.1. To determine statistical significance, unpaired homoscedastic two-tailed Student’s t tests were performed with significance level α = 0.05 with the relevant data. To obtain apparent km and Vmax values, kinetic data were analyzed by non-linear regression using the Michaelis-Menten equation.

Data set [2] concerns the target T1, GST-HsPRMT7. The data set is described as follows: Michaelis-Menten kinetics of peptide substrate methylation (P81 phosphocellulose paper assay). The data set is classed as biochemical. Further details: key to Vmax, Michaelis-Menten best-fit value, Fig7 / Vmax, Michaelis-Menten best-fit value, Fig8: Vmax expressed as cpm (averages of cycles 2–4). On the procedure: as §1, §2, §3

The subject of the next data set is human PRMT7. The conditions noted are these: cited from earlier work; for PRMT7 activity with substituted human histone H2B (23–37) peptides: relative to unsubstituted peptide. As to the method:
Comparatively, a previous study of ionic strength in human HEK293 cells estimates the intracellular concentration of potassium ions to be about 120–140 mM in human cells. As such, our results in Fig 7 led us to question whether this dramatic decrease in activity may be associated with a loss of either substrate-enzyme binding affinity or catalytic activity. || We confirm that human PRMT7 activity is quite sensitive to changes in the RXR target sequence in the substrate protein. […] The exquisite specificity of PRMT7 toward the basic RXR motif can be contrasted to the much broader speci ...

The next data set deals with PRMT9. The note with it: methylation of SF3B2 at Arg508 (505-CFKRKYL-511); cited from earlier work. The text has this: We confirm that human PRMT7 activity is quite sensitive to changes in the RXR target sequence in the substrate protein. […] The exquisite specificity of PRMT7 toward the basic RXR motif can be contrasted to the much broader speci ...

For “Ac-KKDGKKRKRSRKESY-NH2 [Hs H2B (23–37), synthetic peptide of amino acids 23–37 of human histone H2B, PRMT7 substrate used as positive control, reference compound]”, the methylation activity result on GST-HsPRMT7 [1] (5 μg GST-HsPRMT7, 0.14 μM [3H]-AdoMet, 25°C, 1 hour (Fig 4), approximate) is on record as “approximately 6,000 cpm”. Besides, the “methylation activity (maximum value)” value on GST-HsPRMT7 [1] (5 μg GST-HsPRMT7, 0.14 μM [3H]-AdoMet, 25°C, t = 120 min (Fig 6), approximate) is “about 4,000 cpm”. Besides, the “methylation activity (maximum)” value at GST-HsPRMT7 [1] (5 μg GST-HsPRMT7, 0.14 μM [3H]-AdoMet, 25°C, t = 3 hours (Fig 4), approximate) was “approximately 8,000 cpm”. Further, at GST-HsPRMT7 [1] (5 μg GST-HsPRMT7, 0.14 μM [3H]-AdoMet, 40 min, 25°C (Fig 3), in words), the GST-HsPRMT7 methylation activity entry is listed as “highest”. Further, at GST-HsPRMT7 [1] (5 μg GST-HsPRMT7, 0.14 μM [3H]-AdoMet, 20 h, 4°C (Fig 5), in words), the PRMT7 methylation activity entry is “highest PRMT7 methylation activity”. Besides, the “Mean of GST-HsPRMT7 + peptide, Fig3” value on GST-HsPRMT7 [1] (mean of n = 3, 40 min, 25°C) came to 1604 cpm. Further, the “Difference between means ± SEM vs peptide only, Fig3” value on GST-HsPRMT7 [1] (n = 3, 40 min, 25°C, SEM) came out at 1523 ± 86.54 cpm. Also, the Km on GST-HsPRMT7 [2] (+ 130 mM KCl, 5 μg GST-HsPRMT7, 0.14 μM [3H]-AdoMet, 60 min, 25°C, GraphPad Prism fit, read-out: Km, Michaelis-Menten best-fit value, Fig8) was 16.8 µM; at GST-HsPRMT7 [2] (+130 mM KCl, apparent km, 5 μg GST-HsPRMT7, various peptide concentrations, 0.14 μM [3H]-AdoMet, 60 min, 25°C, pH 9.5, Michaelis-Menten fit, triplicates (Fig 8), read-out: km), 17 µM; on GST-HsPRMT7 [2] (no added salt, apparent km of peptide substrate, 5 μg GST-HsPRMT7, various peptide concentrations, 0.14 μM [3H]-AdoMet, 60 min, 25°C, pH 9.5, Michaelis-Menten fit, triplicates (Fig 8), read-out: km), 0.6 µM; on GST-HsPRMT7 [2] (no salt, 5 μg GST-HsPRMT7, 0.14 μM [3H]-AdoMet, 60 min, 25°C, GraphPad Prism fit, read-out: Km, Michaelis-Menten best-fit value, Fig8), 0.558 µM. Further, the “Vmax, Michaelis-Menten best-fit value, Fig8” value at GST-HsPRMT7 [2] (no salt, 5 μg GST-HsPRMT7, 0.14 μM [3H]-AdoMet, 60 min, 25°C, GraphPad Prism fit) is reported as 17053. Besides, the “increase of apparent km on adding 130 mM KCl” value at GST-HsPRMT7 [2] (with vs without 130 mM KCl (Fig 8, Table 2)) stood at 30 fold. Further, the “change of Vmax after adding 130 mM KCl” value at GST-HsPRMT7 [2] (with vs without 130 mM KCl (Fig 8, Table 2), in words) is “relatively unchanged”. Further, in the data set with human PRMT7 (addition of 50 mM NaCl or KCl), the “change of GST-HsPRMT7 activity on addition of salt” value is “decreases by half”.

With “R31K-substituted human H2B (23–37): R31K-substituted human H2B (23–37) peptide, from ref 11 (KKDGKKRKKSRKESY; not fully specified (N-terminus, C-terminus); UniProt P62807 24-38, looked up, variant R31K)”, in the data set with human PRMT7, the “PRMT7 activity with substituted human histone H2B (23–37) peptides” value is reported as “no methyl-accepting activity”.

Take “R29K: human histone H2B (23–37) peptide with R29K substitution, from ref 11 (KKDGKKKKRSRKESY; not fully specified (N-terminus, C-terminus); UniProt P62807 24-38, looked up, variant R29K)”: the “PRMT7 activity with substituted human histone H2B (23–37) peptides” value in the data set on human PRMT7 is “at least a two-thirds reduction”.

B1: SF3B2: splicing factor SF3B2, methylated by PRMT9 at Arg508 (protein, UniProt Q13435 1-895, looked up)
Splicing factor 3B subunit 2: MATEHPEPPKAELQLPPPPPPGHYGAWAAQELQAKLAEIGAPIQGNREELVERLQSYTRQTGIVLNRPVLRGEDGDKAAPPPMSAQLPGIPMPPPPLGLPPLQPPPPPPPPPPGLGLGFPMAHPPNLGPPPPLRVGEPVALSEEERLKLAQQQAALLMQQEERAKQQGDHSLKEHELLEQQKRAAVLLEQERQQEIAKMGTPVPRPPQDMGQIGVRTPLGPRVAAPVGPVGPTPTVLPMGAPVPRPRGPPPPPGDENREMDDPSVGPKIPQALEKILQLKESRQEEMNSQQEEEEMETDARSSLGQSASETEEDTVSVSKKEKNRKRRNRKKKKKPQRVRGVSSESSGDREKDSTRSRGSDSPAADVEIEYVTEEPEIYEPNFIFFKRIFEAFKLTDDVKKEKEKEPEKLDKLENSAAPKKKGFEEEHKDSDDDSSDDEQEKKPEAPKLSKKKLRRMNRFTVAELKQLVARPDVVEMHDVTAQDPKLLVHLKATRNSVPVPRHWCFKRKYLQGKRGIEKPPFELPDFIKRTGIQEMREALQEKEEQKTMKSKMREKVRPKMGKIDIDYQKLHDAFFKWQTKPKLTIHGDLYYEGKEFETRLKEKKPGDLSDELRISLGMPVGPNAHKVPPPWLIAMQRYGPPPSYPNLKIPGLNSPIPESCSFGYHAGGWGKPPVDETGKPLYGDVFGTNAAEFQTKTEEEEIDRTPWGELEPSDEESSEEEEEEESDEDKPDETGFITPADSGLITPGGFSSVPAGMETPELIELRKKKIEEAMDGSETPQLFTVLPEKRTATVGGAMMGSTHIYDMSTVMSRKGPAPELQGVEVALAPEELELDPMAMTQKYEEHVREQQAQVEKEDFSDMVAEHAAKQKQKKRKAQPQDSRGGSKKYKEFKF
With B1, the Km with PRMT9 is 0.08 µM.
